Tests used:
Format in all cases: cell-based
[1] = system: retinoic acid receptor (RAR); experiment: Retinoic acid receptor ChIP-seq; details: 3 μM Compound B, 48 hours
Excerpt: Retinoic acid receptor active binding sites defined in any individual treatment group by ChIP-seq at 48 hrs after treatment were stacked (y-axis) and aligned to the center of the binding peak (x-axis) (FIG. 13). […] Many of the genes found near region 1 binding sites are involved in regulation of retinoid signaling and are transcription factors that drive differentiation (Table 10).
Regions 1-7 of FIG. 13 are defined relative to DMSO: 1, [Combo] Increased; 2, [ATRA] Increased; 3, [ATRA] [Combo] Increased; 4, [Combo] [ATRA] [Compound B] Increased; 5, [Combo] [ATRA] Decreased; 6, [Compound B] Decreased; and 7, [Compound B] [Combo] [ATRA] Decreased.
Neuroblastoma cell line SK-N-BE(2) cells were treated with 3 μM Compound B, 1 μM ATRA, or a combination of both at 37° C. over 48 hours and compared to the solvent (DMSO) control. Antibodies to pan-retinoic acid receptor were used to pull down DNA associated with the receptor binding and sequenced. Lists of binding regions were mapped to the chromosome and “associated” with a given gene if the binding region was located within 10,000 bp up- or down-stream of the gene in question. Binding regions were represented as a heatmap where the sites were stacked on the y-axis across treatments, the “0” mark on the x-axis is the center of the binding peak and the intensity of signal indicated by color. The bracketed regions are areas of statistical significance relative to the DMSO control as indicated on the plot.
Table 12 lists the genes returned when the following conditions are met: 1) combo peak height >4 fold relative to the DMSO control group, and 2) combo expression >4 fold relative to the DMSO control group.

neuroblastoma cells = experiment: Neuroblastoma proliferation, manual cell counts over 7 days; details: 1 μM and 3 μM, counted at days 3, 5 and 7
Protocol: Cells were cultured over a 7 day period and manually counted at days 3, 5, and 7.

SK-N-BE(2) cells [2] = experiment: Cell viability (Promega CellTiter Glo assay)
Protocol: (§1) Cells were cultured for 48 hours at the indicated concentration of drug, and then cell viability was measured by Promega CellTiter Glo assay and caspase activity was measured by Promega Caspase3/7 Glo assay. […] Anti-tumor activity is evident at 3 μM of treatment.

SK-N-BE(2) cells [3] = experiment: Caspase activity (Promega Caspase3/7 Glo assay)
Protocol: as §1

[4] = SK-N-BE(2) cells, 1 μM ATRA or combination, fold relative to the DMSO control group

SMILES: Nc1ccc(-c2cccs2)cc1NC(=O)c1ccc2c(c1)cc(C1CC1)n2CCN1CCOCC1 [Compound B, N-(2-amino-5-(thiophen-2-yl)phenyl)-2-cyclopropyl-1-(2-morpholinoethyl)-1H-indole-5-carboxamide]
- RAR Binding (Peak Height), ACSL3 [1, 4]: 2.00
- RAR Binding (Peak Height), ATP7A [1, 4]: 2.20
- RAR Binding (Peak Height), CDKN1A [1, 4]: 0.50
- RAR Binding (Peak Height), CRABP2 [1, 4]: 0.69
- RAR Binding (Peak Height), CTSH [1, 4]: 0.83
- RAR Binding (Peak Height), CYP26A1 [1, 4]: 2.33
- RAR Binding (Peak Height), CYP26B1 [1, 4]: 1.50
- RAR Binding (Peak Height), DHRS3 [1, 4]: 1.00
- RAR Binding (Peak Height), DUSP6 [1, 4]: 3.00
- RAR Binding (Peak Height), ETS1 [1, 4]: 3.35
- RAR Binding (Peak Height), HSPA5 [1, 4]: 2.00
- RAR Binding (Peak Height), IER3 [1, 4]: 2.67
- RAR Binding (Peak Height), NFKBIZ [1, 4]: 3.33
- RAR Binding (Peak Height), PCDH18 [1, 4]: 4.00
- RAR Binding (Peak Height), PTGER2 [1, 4]: 0.75
- RAR Binding (Peak Height), RARB [1, 4]: 1.10
- RAR Binding (Peak Height), RET [1, 4]: 1.71
- RAR binding to chromatin ([1]; SK-N-BE(2), 1 μM ATRA, vs DMSO): can reduce RAR binding
- proliferation, single agent (neuroblastoma cells): can suppress proliferation similar to ATRA
- cell death (SK-N-BE(2) cells [2]; 1 μM, 48 hours): Minimal
- anti-tumor activity (SK-N-BE(2) cells [2]; 3 μM, 48 hours): evident
- concentrations causing tumor cell death (SK-N-BE(2) cells [2]; FIG. 2A): ≥ 2 µM
- caspase 3/7 induction (SK-N-BE(2) cells [3]; 1 μM, 48 hours): Minimal
- concentrations at which Caspase 3/7 activity is increased (SK-N-BE(2) cells [3]; FIG. 2B, independent of ATRA): ≥ 2 µM

Reference: patent US20160339022A1, “TREATMENT OF NEUROBLASTOMA WITH HISTONE DEACETYLASE INHIBITORS” (Acetylon Pharmaceuticals Inc., priority 2015, published 2016)
